The results in this text go back to patent US6511974B1, “Tricyclic vasopressin agonists” (Wyeth, priority 1997, dated 2003).

Molecules are shown by their SMILES.

In one series the target is T1, Vasopressin V2 (Rattus norvegicus, UniProt Q00788).
T1 construct: vasopressin V2 receptors of the nephrons of the kidney; tissue Charles River Laboratories, Inc; host or cells: whole living animal (kidney collecting ducts)
Briefly: Vasopressin V2 agonist effects in normal conscious water-loaded rats. The note with it: Sprague-Dawley (CD) rats, urine collected four hours; for Urine Volume (% decrease): 10 mg per kg oral, percent decrease in urine volume vs. control; for Osmolality (% Increase): 10 mg/kg oral, change in osmolality as percent of control. The series is classed as in vivo. The text has this: Vasopressin V2 Agonist Effects of Test Compounds in Normal Conscious Water-Loaded Rats:
Male or female normotensive Sprague-Dawley rats (Charles River Laboratories, Inc., Kingston, N.Y.) of 350-500 g body weight were supplied with standard rodent diet (Purina Rodent Lab. Chow 5001) and water ad libitum. On the day of test, rats were placed individually into metabolic cages equipped with devices to separate the feces from the urine and containers for collection of urine. Test compound or reference agent was given at an oral dose of 10 mg/kg in a volume of 10 ml/kg. The vehicle used was 20% dimethylsulfoxide (DMSO) in 2.5% preboiled corn starch. Thirty minutes after dosing the test compound, rats were gavaged with water at 30 ml/kg into the stomach using a feeding needle. During the test, rats were not provided with water or food. Urine was collected for four hours after dosing of the test compound. At the end of four hours, urine volume was measured. Urinary osmolality was determined using a Fiske One-Ten Osmometer (Fiske Associates, Norwood, Mass., 02062) or an Advanced CRYOMATIC Osmometer, Model 3C2 (Advanced Instruments, Norwood, Mass.). Determinations of Na^+, K^+ and Cl^− ion were carried out using ion specific electrodes in a Beckman SYNCHRON EL-ISE Electrolyte System analyzer. The urinary osmolality should increase proportionally. In the screening test, two rats were used for each compound. If the difference in the urine volume of the two rats was greater than 50%, a third rat was used.

T1 sequence (Q00788 whole entry): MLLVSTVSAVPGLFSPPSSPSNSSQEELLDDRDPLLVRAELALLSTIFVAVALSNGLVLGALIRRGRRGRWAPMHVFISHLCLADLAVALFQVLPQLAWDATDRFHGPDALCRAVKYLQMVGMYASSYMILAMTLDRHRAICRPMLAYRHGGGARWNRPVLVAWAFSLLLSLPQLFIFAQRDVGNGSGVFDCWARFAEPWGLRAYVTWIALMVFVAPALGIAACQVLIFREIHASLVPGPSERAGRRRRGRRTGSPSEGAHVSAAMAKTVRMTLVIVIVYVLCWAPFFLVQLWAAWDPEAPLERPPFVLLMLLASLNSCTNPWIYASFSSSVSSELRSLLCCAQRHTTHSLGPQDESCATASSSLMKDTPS

On to `Cc1ccn(-c2ccc(C(=O)N3Cc4cccn4Cc4ccccc43)c(Cl)c2)n1` [Example 9A], for which, on Vasopressin V2, the “Urine Volume (% decrease)” value came to 70% and the “Osmolality (% Increase)” value stood at 325%. `Cc1cnn(-c2ccc(C(=O)N3C=C4CC=CN4Cc4ccccc43)cc2)c1` [Example 60, [4-(4-Methyl-pyrazol-1-yl)-phenyl]-(5H,1H-pyrrolo[2,1-c][1,4]-benzodiazepin-10-yl)-methanone]: the melting point (in general, the temperature, or range, at which the solid turns liquid) was in the range of 179 to 181 °C. Take `Cn1ncnc1-c1ccc(C(=O)N2Cc3cccn3Cc3ccccc32)c(Cl)c1` [Example 84, [2-Chloro-4-(2-methyl-2H-[1,2,4]triazol-3-yl)-phenyl]-(5H,11H-pyrrolo [2,1-c][1,4]benzodiazepin-10)-methanone]: at Vasopressin V2, the “Urine Volume (% decrease)” value amounted to 56% and the “Osmolality (% Increase)” value amounted to 291%.

`C#Cc1ccc(C(=O)N2Cc3cccn3Cc3ccccc32)c(Cl)c1` [Example 123, [2-Chloro-4-ethynyl-phenyl](5H-11H-pyrrolo [1,2-c][1,4]benzodiazepin-10-yl)methanone.]: at Vasopressin V2, the “Urine Volume (% decrease)” value amounted to 88% and the “Osmolality (% Increase)” value is given as 663%.
